For 25 compounds, Ki results are on record in patent US8435980B2 (AbbVie Inc., priority 2009, dated 2013).

pKi: −log10 of the molar value. Where only a bound is given, the exact number is not on record here.

T1 sequence (O00311 whole entry): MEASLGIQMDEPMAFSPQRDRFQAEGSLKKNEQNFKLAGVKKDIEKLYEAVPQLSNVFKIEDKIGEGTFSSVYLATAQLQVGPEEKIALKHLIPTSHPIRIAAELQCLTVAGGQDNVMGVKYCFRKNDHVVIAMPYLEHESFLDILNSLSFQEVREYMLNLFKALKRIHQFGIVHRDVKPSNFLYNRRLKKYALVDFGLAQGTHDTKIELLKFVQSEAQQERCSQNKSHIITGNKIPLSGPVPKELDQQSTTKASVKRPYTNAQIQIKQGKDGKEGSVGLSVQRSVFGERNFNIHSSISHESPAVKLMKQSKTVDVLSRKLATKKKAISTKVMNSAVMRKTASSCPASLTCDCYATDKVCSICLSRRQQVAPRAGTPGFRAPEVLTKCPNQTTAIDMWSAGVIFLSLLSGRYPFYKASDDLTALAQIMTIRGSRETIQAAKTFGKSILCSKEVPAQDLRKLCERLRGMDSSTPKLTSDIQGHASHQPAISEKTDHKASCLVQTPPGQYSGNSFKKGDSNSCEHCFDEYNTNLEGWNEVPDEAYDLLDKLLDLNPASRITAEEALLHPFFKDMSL
T1 sequence (Q9UBU7 whole entry partner): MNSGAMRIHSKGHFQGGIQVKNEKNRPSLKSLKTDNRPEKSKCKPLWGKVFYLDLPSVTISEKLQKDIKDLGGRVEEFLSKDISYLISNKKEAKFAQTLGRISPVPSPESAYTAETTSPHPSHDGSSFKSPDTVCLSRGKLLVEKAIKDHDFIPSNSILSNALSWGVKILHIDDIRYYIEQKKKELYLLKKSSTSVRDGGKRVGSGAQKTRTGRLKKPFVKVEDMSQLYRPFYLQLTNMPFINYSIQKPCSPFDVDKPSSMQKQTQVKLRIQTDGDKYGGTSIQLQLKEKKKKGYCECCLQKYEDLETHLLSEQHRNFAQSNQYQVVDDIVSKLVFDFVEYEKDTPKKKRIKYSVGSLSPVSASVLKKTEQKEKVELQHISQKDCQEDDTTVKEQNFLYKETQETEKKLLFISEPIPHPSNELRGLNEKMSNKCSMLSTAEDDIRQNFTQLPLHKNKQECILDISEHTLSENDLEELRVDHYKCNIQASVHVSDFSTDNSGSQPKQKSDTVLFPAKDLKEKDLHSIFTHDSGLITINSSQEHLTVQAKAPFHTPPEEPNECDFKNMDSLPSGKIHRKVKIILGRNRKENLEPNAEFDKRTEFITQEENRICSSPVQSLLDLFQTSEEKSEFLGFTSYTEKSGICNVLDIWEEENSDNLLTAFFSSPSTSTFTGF

The assay concerns the target T1, Cdc7 (BEV coexpressed huCDC7/DBF4) (Homo sapiens, UniProt O00311).
T1 construct: made in house; host or cells: BEV (baculovirus expression vector) co-expression; insect cells are implied but no cell line is named
Put plainly: Cdc7 enzyme inhibition assay ([33P]ATP, biotinylated peptide substrate, FlashPlate). The note with it: Table 3; enzyme inhibition data (Ki). In kind it is biochemical. How it is done: Cdc7 (BEV coexpressed huCDC7/DBF4) is prepared internally. Cdc7 assays are conducted as follows with final concentrations as listed. […] Reactions are quenched after 1 hr by the addition of 90 μL stop buffer (50 mM EDTA, 2M NaCl). […] (Ki) for exemplary compounds.
Regarding `COc1cnc2[nH]cc(-c3cc(Cl)nc(NC4CCCC(NC(C)=O)C4)c3)c2c1` (stereo not shown) [Example 261, N-(3-{[6-chloro-4-(5-methoxy-1H-pyrrolo[2,3-b]pyridin-3-yl)pyridin-2-yl]amino}cyclohexyl)acetamide], the pKi was above 8.00.
The same measure for `COc1cnc2[nH]cc(-c3cc(Cl)nc(NC4CCCC(NS(=O)(=O)c5cccs5)C4)c3)c2c1` (stereo not shown) [Example 262, N-(3-{[6-chloro-4-(5-methoxy-1H-pyrrolo[2,3-b]pyridin-3-yl)pyridin-2-yl]amino}cyclohexyl)thiophene-2-sulfonamide]: above 8.00.
As for `COc1cnc2[nH]cc(-c3cc(Cl)nc(NC4CCCC(NC(=O)CN5CCCC5)C4)c3)c2c1` (stereo not shown) [Example 263, N-(3-{[6-chloro-4-(5-methoxy-1H-pyrrolo[2,3-b]pyridin-3-yl)pyridin-2-yl]-amino}cyclohexyl)-2-(pyrrolidin-1-yl)acetamide], the pKi is above 8.00.
`Clc1cc(-c2c[nH]c3ncccc23)nc(NCC2CCCO2)n1` (stereo not shown) [Example 265, 4-chloro-6-(1H-pyrrolo[2,3-b]pyridin-3-yl)-N-(tetrahydrofuran-2-ylmethyl)pyrimidin-2-amine]: the pKi is above 8.00.
As for `Clc1cc(-c2c[nH]c3ncccc23)nc(NCc2ccncc2)n1` [Example 266, 4-chloro-N-(pyridin-4-ylmethyl)-6-(1H-pyrrolo[2,3-b]pyridin-3-yl)pyrimidin-2-amine], the figure is above 8.00; as for `Clc1cc(-c2c[nH]c3ncccc23)nc(NCc2cccnc2)n1` [Example 267, 4-chloro-N-(pyridin-3-ylmethyl)-6-(1H-pyrrolo[2,3-b]pyridin-3-yl)pyrimidin-2-amine], above 8.00; as for `Clc1cc(-c2c[nH]c3ncccc23)nc(NCc2ccccn2)n1` [Example 268, 4-chloro-N-(pyridin-2-ylmethyl)-6-(1H-pyrrolo[2,3-b]pyridin-3-yl)pyrimidin-2-amine], above 8.00.
The same measure for `CN(C)c1nc(Cl)cc(-c2c[nH]c3ncccc23)n1` [Example 269, 4-chloro-N,N-dimethyl-6-(1H-pyrrolo[2,3-b]pyridin-3-yl)pyrimidin-2-amine]: above 8.00; for `O=C(N[C@H]1CC[C@H](Nc2nc(Cl)cc(-c3c[nH]c4ncccc34)n2)CC1)C1CC1` [Example 271, N-(trans-4-{[4-chloro-6-(1H-pyrrolo[2,3-b]pyridin-3-yl)pyrimidin-2-yl]amino}cyclohexyl)cyclopropanecarboxamide]: above 8.00; for `O=C(NC1CCCC(Nc2nc(Cl)cc(-c3c[nH]c4ncccc34)n2)C1)C1CC1` (stereo not shown) [Example 272, N-(3-{[4-chloro-6-(1H-pyrrolo[2,3-b]pyridin-3-yl)pyrimidin-2-yl]amino}cyclohexyl)cyclopropanecarboxamide]: above 8.00.
As for `Clc1cc(-c2c[nH]c3ncccc23)nc(NC2CCCC(NC3CCC3)C2)n1` (stereo not shown) [Example 274, N-[4-chloro-6-(1H-pyrrolo[2,3-b]pyridin-3-yl)pyrimidin-2-yl]-N′-cyclobutylcyclohexane-1,3-diamine], the figure is above 8.00.
Consider `Clc1cc(-c2c[nH]c3ncccc23)nc(N[C@H]2CC[C@H](NC3CCC3)CC2)n1` [Example 275, trans-N-[4-chloro-6-(1H-pyrrolo[2,3-b]pyridin-3-yl)pyrimidin-2-yl]-N′-cyclobutylcyclohexane-1,4-diamine], for which the pKi was above 8.00.
The same measure for `COCCNc1nc(Cl)cc(-c2c[nH]c3ncccc23)n1` [Example 279, 4-chloro-N-(2-methoxyethyl)-6-(1H-pyrrolo[2,3-b]pyridin-3-yl)pyrimidin-2-amine]: above 8.00; for `O=C(Nc1ccccc1)N[C@H]1CC[C@H](Nc2nc(Cl)cc(-c3c[nH]c4ncccc34)n2)CC1` [Example 281, 1-(trans-4-{[4-chloro-6-(1H-pyrrolo[2,3-b]pyridin-3-yl)pyrimidin-2-yl]amino}cyclohexyl)-3-phenylurea]: above 8.00; for `O=S(=O)(N[C@H]1CC[C@H](Nc2nc(Cl)cc(-c3c[nH]c4ncccc34)n2)CC1)C1CC1` [Example 282, N-(trans-4-{[4-chloro-6-(1H-pyrrolo[2,3-b]pyridin-3-yl)pyrimidin-2-yl]amino}cyclohexyl)cyclopropanesulfonamide]: above 8.00.
As for `Cc1noc(C)c1S(=O)(=O)NC1CCC(Nc2cc(-c3c[nH]c4ncccc34)cc(Cl)n2)CC1` (stereo not shown) [Example 283, N-(4-{[6-chloro-4-(1H-pyrrolo[2,3-b]pyridin-3-yl)pyridin-2-yl]amino}cyclohexyl)-3,5-dimethyl-1,2-oxazole-4-sulfonamide], the figure is above 8.00.
As for `COC[C@H](Cc1ccccc1)Nc1cc(-c2c[nH]c3ncccc23)cc(Cl)n1` [Example 284, 6-chloro-N-[(2S)-1-methoxy-3-phenylpropan-2-yl]-4-(1H-pyrrolo[2,3-b]pyridin-3-yl)pyridin-2-amine], the figure is above 8.00; as for `Clc1cc(-c2c[nH]c3ncccc23)cc(NC2CCCC(NC3CCCC3)C2)n1` (stereo not shown) [Example 285, N-[6-chloro-4-(1H-pyrrolo[2,3-b]pyridin-3-yl)pyridin-2-yl]-N′-cyclopentylcyclohexane-1,3-diamine], 7.00 to 8.00.
`CCOC(=O)CNC(=O)NC1CCC(Nc2cc(-c3c[nH]c4ncccc34)cc(Cl)n2)CC1` (stereo not shown) [Example 286, ethyl N-[(4-{[6-chloro-4-(1H-pyrrolo[2,3-b]pyridin-3-yl)pyridin-2-yl]amino}cyclohexyl)carbamoyl]glycinate] had a pKi above 8.00.
As for `CC(C)NC(=O)NC1CCC(Nc2cc(-c3c[nH]c4ncccc34)cc(Cl)n2)CC1` (stereo not shown) [Example 287, 1-(4-{[6-chloro-4-(1H-pyrrolo[2,3-b]pyridin-3-yl)pyridin-2-yl]amino}cyclohexyl)-3-propan-2-ylurea], the figure is above 8.00; as for `CC(C)(C)NC(=O)NC1CCC(Nc2cc(-c3c[nH]c4ncccc34)cc(Cl)n2)CC1` (stereo not shown) [Example 288, 1-tert-butyl-3-(4-{[6-chloro-4-(1H-pyrrolo[2,3-b]pyridin-3-yl)pyridin-2-yl]amino}cyclohexyl)urea], above 8.00.
The same measure for `COCC(=O)NC1CCC(Nc2cc(-c3c[nH]c4ncccc34)cc(Cl)n2)CC1` (stereo not shown) [Example 289, N-(4-{[6-chloro-4-(1H-pyrrolo[2,3-b]pyridin-3-yl)pyridin-2-yl]amino}cyclohexyl)-2-methoxyacetamide]: above 8.00; for `Clc1cc(-c2c[nH]c3ncccc23)cc(NC2CCCC(NCc3nccs3)C2)n1` (stereo not shown) [Example 290, N-[6-chloro-4-(1H-pyrrolo[2,3-b]pyridin-3-yl)pyridin-2-yl]-N′-(1,3-thiazol-2-ylmethyl)cyclohexane-1,3-diamine]: above 8.00.
The same measure for `Clc1cc(-c2c[nH]c3ncccc23)cc(NC2CCCC(NCc3cccc(CN4CCCCC4)c3)C2)n1` (stereo not shown) [Example 291, N-[6-chloro-4-(1H-pyrrolo[2,3-b]pyridin-3-yl)pyridin-2-yl]-N′-[3-(piperidin-1-ylmethyl)benzyl]cyclohexane-1,3-diamine]: above 8.00.
`CCOCC(=O)NC1CCCC(Nc2cc(-c3c[nH]c4ncccc34)cc(Cl)n2)C1` (stereo not shown) [Example 292, N-(3-{[6-chloro-4-(1H-pyrrolo[2,3-b]pyridin-3-yl)pyridin-2-yl]amino}cyclohexyl)-2-ethoxyacetamide] had a pKi above 8.00.
